The values below come from PMC7105820, “Mutant ACVR1 Arrests Glial Cell Differentiation to Drive Tumorigenesis in Pediatric Gliomas” (Cancer Cell, 2020).

This assay concerns the target T1, ACVR1 (Homo sapiens, UniProt Q04771).
T1 sequence (Q04771 21-509): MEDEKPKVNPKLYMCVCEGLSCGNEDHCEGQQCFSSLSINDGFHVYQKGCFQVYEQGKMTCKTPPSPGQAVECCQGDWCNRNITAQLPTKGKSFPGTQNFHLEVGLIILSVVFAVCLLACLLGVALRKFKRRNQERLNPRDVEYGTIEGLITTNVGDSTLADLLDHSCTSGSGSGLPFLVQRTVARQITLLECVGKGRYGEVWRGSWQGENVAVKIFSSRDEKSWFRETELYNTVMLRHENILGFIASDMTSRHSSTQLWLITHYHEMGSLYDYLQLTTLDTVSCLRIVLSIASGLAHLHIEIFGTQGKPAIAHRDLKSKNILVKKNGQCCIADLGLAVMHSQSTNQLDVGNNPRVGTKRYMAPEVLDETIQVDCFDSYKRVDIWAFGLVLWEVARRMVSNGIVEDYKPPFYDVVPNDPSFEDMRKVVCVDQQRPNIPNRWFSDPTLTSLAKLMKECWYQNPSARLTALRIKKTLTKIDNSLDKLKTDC
The experiment in a line: ([…] Å) of the ACVR1-FKBP12 complex; IC50 from cellular NanoBRET target engagement (HEK-293). The class given is cell-based.

In turn, `CCNc1cc(O)c2c(c1)/C=C/C[C@H](O)[C@H](O)C(=O)/C=C\[C@@H](C)[C@H](C)OC2=O` [E6201, (3S,4R,5Z,8S,9S,11E)-14-(ethylamino)-8,9,16-trihydroxy-3,4-dimethyl-3,4,9,19-tetrahydro-1H-2-benzoxacyclotetradecine-1,7 (8H)-dione] gave an IC50 of around 250 nM.

For orientation: IC50 means the midpoint of a concentration-inhibition curve.
